Measurements taken from ChEMBL document CHEMBL3352218, “Structural basis for inhibition of mycobacterial and human adenosine kinase by 7-substituted 7-(Het)aryl-7-deazaadenine ribonucleosides” (J Med Chem, 2014).
Values after ≈ are worked out from the molar mass of the structure shown. Active and inactive are the calls of the source. The rule behind the calls is not given here.

Columns and labels:
[1] = test system: Mycobacterium tuberculosis; assay: Binding affinity to Mycobacterium tuberculosis ADK expressed in Escherichia coli BL21(DE3) cells assessed as relative STD enhancements of signal from H-8 at 500 uM by 1H STD NMR spectroscopy
[2] = test system: Mycobacterium tuberculosis; assay: Activity of Mycobacterium tuberculosis ADK expressed in Escherichia coli BL21(DE3) cells assessed as compound phosphorylation by measuring conversion of compound to 5'-phosphate
[3] = test system: Mycobacterium tuberculosis; assay: Binding affinity to Mycobacterium tuberculosis ADK expressed in Escherichia coli BL21(DE3) cells assessed as relative STD enhancements of signal from H-1' at 500 uM by 1H STD NMR spectroscopy
[4] = test system: Mycobacterium tuberculosis; assay: Binding affinity to Mycobacterium tuberculosis ADK expressed in Escherichia coli BL21(DE3) cells assessed as relative STD enhancements of signal from H-2 at 500 uM by 1H STD NMR spectroscopy
[5] = molecular target: T1, Adenosine kinase (Homo sapiens, UniProt P55263); assay: Binding affinity to human ADK expressed in Escherichia coli BL21(DE3) cells in presence of adenosine by two dimensional 15N/1H triple-resonance HSQC NMR spectroscopy
Target sequence in this assay (P55263 2-362 limits assumed): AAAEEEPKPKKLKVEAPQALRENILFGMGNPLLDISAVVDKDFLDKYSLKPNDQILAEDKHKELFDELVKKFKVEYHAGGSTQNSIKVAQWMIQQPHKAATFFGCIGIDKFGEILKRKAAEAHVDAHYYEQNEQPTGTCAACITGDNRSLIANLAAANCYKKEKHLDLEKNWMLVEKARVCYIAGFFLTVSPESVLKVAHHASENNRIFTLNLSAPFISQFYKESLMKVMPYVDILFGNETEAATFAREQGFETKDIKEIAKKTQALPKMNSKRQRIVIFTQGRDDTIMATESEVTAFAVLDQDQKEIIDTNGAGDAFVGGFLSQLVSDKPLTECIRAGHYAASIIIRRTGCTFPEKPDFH

[6] = molecular target: T1, Adenosine kinase; assay: Binding affinity to human ADK expressed in Escherichia coli BL21(DE3) cells in presence of ATPgammaS by two dimensional 15N/1H triple-resonance HSQC NMR spectroscopy
Target sequence in this assay (P55263 2-362 limits assumed): as above

[7] = molecular target: T1, Adenosine kinase; assay: Binding affinity to human ADK expressed in Escherichia coli BL21(DE3) cells assessed as relative STD enhancements of signal from H-1' at 500 uM by 1H STD NMR spectroscopy
Target sequence in this assay (P55263 2-362 limits assumed): as above

[8] = molecular target: T1, Adenosine kinase; assay: Binding affinity to human ADK expressed in Escherichia coli BL21(DE3) cells assessed as relative STD enhancements of signal from H-2 at 500 uM by 1H STD NMR spectroscopy
Target sequence in this assay (P55263 2-362 limits assumed): as above

[9] = molecular target: T1, Adenosine kinase; assay: Binding affinity to free human ADK expressed in Escherichia coli BL21(DE3) cells by two dimensional 15N/1H triple-resonance HSQC NMR spectroscopy
Target sequence in this assay (P55263 2-362 limits assumed): as above

[10] = test system: Mycobacterium tuberculosis; assay: Antimycobacterial activity against Mycobacterium tuberculosis H37Rv My 331/88 assessed as microbial growth inhibition incubated for 14 days; type: functional; details: H37Rv My 331/88, 336 h
[11] = test system: MRC5; assay: Cytotoxicity against human MRC5 cells by MTT assay; type: functional
[12] = molecular target: T1, Adenosine kinase; assay: Binding affinity to human ADK expressed in Escherichia coli BL21(DE3) cells assessed as relative STD enhancements of signal from H-8 at 500 uM by 1H STD NMR spectroscopy
Target sequence in this assay (P55263 2-362 limits assumed): as above

[13] = Inhibition of Mycobacterium tuberculosis ADK expressed in Escherichia coli BL21(DE3) cells using [3H]adenosine by liquid scintillation counting method
[14] = test system: Mycobacterium tuberculosis; assay: Binding affinity to Mycobacterium tuberculosis ADK expressed in Escherichia coli BL21(DE3) cells assessed as relative STD enhancements of signal from Ar at 500 uM by 1H STD NMR spectroscopy
[15] = molecular target: T1, Adenosine kinase; assay: Binding affinity to human ADK expressed in Escherichia coli BL21(DE3) cells assessed as relative STD enhancements of signal from Ar at 500 uM by 1H STD NMR spectroscopy
[16] = molecular target: T1, Adenosine kinase; assay: Inhibition of human ADK expressed in Escherichia coli BL21(DE3) cells using [3H]adenosine by liquid scintillation counting method
Target sequence in this assay (P55263 whole entry): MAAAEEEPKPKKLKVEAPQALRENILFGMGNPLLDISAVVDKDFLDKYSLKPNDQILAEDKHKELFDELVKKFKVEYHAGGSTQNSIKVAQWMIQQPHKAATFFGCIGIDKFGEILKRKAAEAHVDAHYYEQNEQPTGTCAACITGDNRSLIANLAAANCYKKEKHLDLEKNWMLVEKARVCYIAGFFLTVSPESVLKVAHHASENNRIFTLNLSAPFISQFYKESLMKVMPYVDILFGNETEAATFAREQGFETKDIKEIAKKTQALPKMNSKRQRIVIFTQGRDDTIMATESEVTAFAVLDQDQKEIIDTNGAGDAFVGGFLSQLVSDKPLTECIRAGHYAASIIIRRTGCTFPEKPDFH

[17] = test system: BJ; assay: Cytotoxicity against human BJ cells by MTT assay; type: functional
[18] = test system: Mycobacterium tuberculosis; assay: Binding affinity to Mycobacterium tuberculosis ADK expressed in Escherichia coli BL21(DE3) cells assessed as relative STD enhancements of signal from Ar' at 500 uM by 1H STD NMR spectroscopy
[19] = test system: Mycobacterium tuberculosis; assay: Binding affinity to Mycobacterium tuberculosis ADK expressed in Escherichia coli BL21(DE3) cells assessed as relative STD enhancements of signal from Ar'' at 500 uM by 1H STD NMR spectroscopy
[20] = molecular target: T1, Adenosine kinase; assay: Activity of human ADK expressed in Escherichia coli BL21(DE3) cells assessed as compound phosphorylation by measuring conversion of compound to 5'-phosphate; parameters: concentration or dose not given beside the values
[21] = test system: Mycobacterium tuberculosis; assay: Mixed competitive inhibition of Mycobacterium tuberculosis ADK expressed in Escherichia coli BL21(DE3) cells using varying adenosine levels by Lineweaver-Burk plot
[22] = molecular target: T1, Adenosine kinase; assay: Mixed uncompetitive inhibition of human ADK expressed in Escherichia coli BL21(DE3) cells using varying ATP levels by Lineweaver-Burk plot
[23] = molecular target: T1, Adenosine kinase; assay: Mixed competitive inhibition of human ADK expressed in Escherichia coli BL21(DE3) cells using varying adenosine levels by Lineweaver-Burk plot
[24] = test system: Mycobacterium tuberculosis; assay: Mixed competitive inhibition of Mycobacterium tuberculosis ADK expressed in Escherichia coli BL21(DE3) cells using varying ATP levels by Lineweaver-Burk plot

CC(C)c1cccc(-c2cn([C@@H]3O[C@H](CO)[C@@H](O)[C@H]3O)c3ncnc(N)c23)c1
Activity [1]: 42%
Activity [2]: inactive
Activity [3]: 100%
Activity [4]: 42%
Activity [5]: Active
Activity [6]: Active
Activity [7]: 100%
Activity [8]: 72%
Activity [9]: Active
MIC [10]: 32 µM (≈ 12.3 µg/mL)
CC50 [11]: > 100 µM
Activity [12]: 72%
IC50 [13]: 2330 nM
Activity [14]: 37%
Activity [15]: 52%
IC50 [16]: 3.3 µM
CC50 [17]: > 100 µM

Nc1ncnc2c1c(-c1cccc3c1Oc1ccccc1S3)cn2[C@@H]1O[C@H](CO)[C@@H](O)[C@H]1O
Activity [1]: 68%
Activity [2]: inactive
Activity [3]: 100%
Activity [4]: 50%
Activity [5]: Active
Activity [6]: Active
Activity [7]: 100%
Activity [8]: 33%
Activity [9]: Active
MIC [10]: 16 µM (≈ 7.43 µg/mL)
CC50 [11]: 95.1 µM
Activity [12]: 39%
IC50 [13]: 300 nM
Activity [14]: 83%
Activity [15]: 60%
IC50 [16]: > 20 µM
CC50 [17]: > 100 µM

Nc1ncnc2c1c(-c1ccco1)cn2[C@@H]1O[C@H](CO)[C@@H](O)[C@H]1O
Activity [1]: 29%
Activity [2]: inactive
Activity [3]: 100%
Activity [4]: 43%
Activity [18]: 31%
Activity [5]: Active
Activity [6]: Active
Activity [7]: 100%
Activity [8]: 64%
Activity [19]: 39%
Activity [9]: Active
MIC [10]: 62.5 µM (≈ 20.8 µg/mL)
CC50 [11]: 9.49 µM
Activity [12]: 36%
IC50 [13]: 2100 nM
Activity [20]: 8%
Activity [14]: 38%
Activity [15]: 74%
IC50 [16]: > 5 µM
CC50 [17]: 18.3 µM

Nc1ncnc2c1c(-c1nccs1)cn2[C@@H]1O[C@H](CO)[C@@H](O)[C@H]1O
Activity [1]: 33%
Activity [2]: inactive
Activity [3]: 100%
Activity [4]: 37%
Activity [18]: 45%
Activity [5]: Active
Activity [6]: Active
Activity [7]: 100%
Activity [8]: 57%
Activity [9]: Active
MIC [10]: 125 µM (≈ 43.7 µg/mL)
CC50 [11]: 25.1 µM
Activity [12]: 41%
IC50 [13]: 4500 nM
Activity [20]: 3%
Activity [14]: 34%
Activity [15]: 52%
IC50 [16]: 2.3 µM
CC50 [17]: > 100 µM

C#Cc1cn([C@@H]2O[C@H](CO)[C@@H](O)[C@H]2O)c2ncnc(N)c12
Activity [1]: 54%
inhibition [21]: Active
Activity [2]: inactive
Activity [3]: 100%
Activity [4]: 63%
inhibition [22]: Active
Activity [5]: Active
Activity [6]: Active
Activity [7]: 100%
Activity [8]: 33%
inhibition [23]: Active
Activity [9]: Active
MIC [10]: 8 µM (≈ 2.32 µg/mL)
inhibition [24]: Active
CC50 [11]: 13.4 µM
Activity [12]: 17%
IC50 [13]: 330 nM
Activity [20]: 62%
CC50 [17]: 43.1 µM
